According to patent publication US20240116857A1 (St. Louis University, priority 2022, published 2024):
In brackets after ≈: the same amount, converted by molar mass.

What follows are molecules tested on E. coli BW25113 (assay: MIC, 2-fold broth dilution, E. coli BW25113). Details: Escherichia coli; E. coli BW25113; asterisk in column 1-10; read-out: MIC, μM 1-10.
Type: cell-based, Escherichia coli

| Structure (SMILES) | MIC |
| --- | --- |
| COc1cc(NC(=O)c2ccc(-c3ccc(C(=O)Nc4ccc([N+](C)(C)C)c(F)c4)cc3)cc2)ccc1[N+](C)(C)C [Example 98, 2-fluoro-4-(4′-((3-methoxy-4-(trimethylammonio)phenyl)carbamoyl)-[1,1′-biphenyl]-4-carboxamido)-N,N,N-trimethylbenzenaminium] | 1 to 10 µM |
| CN(C)c1ccc(NC(=O)c2ccc(-c3ccc(C(=O)Nc4ccc(N5CCCCC5)c(F)c4)cc3)cc2)cc1F [Example 143] | 1 to 10 µM (≈ 0.555 to 5.55 µg/mL) |
| CN(C)c1ccc(NC(=O)c2ccc(-c3ccc(C(=O)Nc4ccc(N5CCCCC5)cc4)cc3)cc2)cc1 [Example 127] | 1 to 10 µM (≈ 0.519 to 5.19 µg/mL) |
| C[N+](C)(C)c1ccc(NC(=O)c2ccc(-c3ccc(C(=O)Nc4ccc([N+](C)(C)C)c(F)c4)cc3)cc2)cc1F [Example 77, 2-fluoro-4-(4′-{[3-fluoro-4-(trimethylazaniumyl)phenyl]carbamoyl}-[1,1′-biphenyl]-4-amido)-N,N,N-trimethylanilinium] | 1 to 10 µM |
| C#CCCOc1cc(NC(=O)c2ccc(-c3ccc(C(=O)Nc4ccc([N+](C)(C)C)c(F)c4)cc3)cc2)ccc1[N+](C)(C)C [Example 103, 2-(but-3-yn-1-yloxy)-4-(4′-((3-fluoro-4-(trimethylammonio)phenyl)carbamoyl)-[1,1′-biphenyl]-4-carboxamido)-N,N,N-trimethylbenzenaminium] | 1 to 10 µM |

Same assay, conditions: Escherichia coli; E. coli BW25113; asterisk in column 10-50; read-out: MIC, μM 10-50

| Structure (SMILES) | MIC |
| --- | --- |
| C[n+]1ccc(Oc2ccc(NC(=O)c3ccc(C(=O)Nc4ccc(Oc5cc[n+](C)cc5)cc4)c([N+](=O)[O-])c3)cc2)cc1 [Example 84, 4,4′-((((2-nitroterephthaloyl)bis(azanediyl))bis(4,1-phenylene))bis(oxy))bis(1-methylpyridin-1-ium)] | 10 to 50 µM |
| C[n+]1ccc(Oc2ccc(NC(=O)c3ccc(C(=O)Nc4ccc(Oc5cc[n+](C)cc5)cc4)cc3)cc2)cc1 [Example 13, 4,4′-(((terephthaloylbis(azanediyl))bis(4,1-phenylene))bis(oxy))bis(1-methylpyridin-1-ium)] | 10 to 50 µM |
| C[N+](C)(C)c1ccc(NC(=O)c2ccc(-c3ccc(C(=O)Nc4ccc([N+](C)(C)C)c(Br)c4)cc3)cc2)cc1Br [Example 86, 4,4′-(([1,1′-biphenyl]-4,4′-dicarbonyl)bis(azanediyl))bis(2-bromo-N,N,N-trimethylbenzenaminium)] | 10 to 50 µM |
| Cc1cc(NC(=O)c2ccc(-c3ccc(C(=O)Nc4cc[n+](C)c(C)c4)cc3)cc2)cc[n+]1C [Example 29, 4,4′-(([1,1′-biphenyl]-4,4′-dicarbonyl)bis(azanediyl))bis(1,2-dimethylpyridin-1-ium)] | 10 to 50 µM |
| C#CCCC[N+](C)(C)c1ccc(NC(=O)c2ccc(-c3ccc(C(=O)Nc4ccc([N+](C)(C)C)c(F)c4)cc3)cc2)cc1F [Example 118] | 10 to 50 µM |

Same assay, conditions: Escherichia coli; E. coli BW25113; asterisk in column >50; read-out: MIC, μM >50

| Structure (SMILES) | MIC |
| --- | --- |
| O=C(Nc1ccc(Nc2ccncc2)cc1)[C@H]1CC[C@H](C(=O)Nc2ccc(Nc3ccncc3)cc2)CC1 [Example 60, (E)-N^1,N^4-bis(4-(pyridin-4-ylamino)phenyl)cyclohexane-1,4-dicarboxamide] | > 50 µM |
| O=C(Nc1ccc(Cc2ccncc2)cc1)c1ccc(C(=O)Nc2ccc(Cc3ccncc3)cc2)cc1 [Example 12, N^1,N^4-bis(4-(pyridin-4-ylmethyl)phenyl)terephthalamide] | > 50 µM |
| C[N+](C)(C)c1ccc(NC(=O)c2ccc(-c3ccc(C(=O)Nc4ccc([N+](C)(C)CCCCc5cn(CCOCCOCCOCCNC(=O)CCCC[C@@H]6SC[C@@H]7NC(=O)N[C@@H]76)nn5)c(F)c4)cc3)cc2)cc1F [Example 132] | > 50 µM |
| Cc1cc(NC(=O)c2ccc(-c3ccc(C(=O)Nc4ccc([N+](C)(C)C)c(C)c4)cc3)cc2)ccc1[N+](C)(C)C [Example 37, 4,4′-(([1,1′-biphenyl]-4,4′-dicarbonyl)bis(azanediyl))bis(N,N,N,2-tetramethylbenzenaminium)] | > 50 µM |
| COC(=O)Cn1cc(CCOc2cc(NC(=O)c3ccc(-c4ccc(C(=O)Nc5ccc([N+](C)(C)C)c(F)c5)cc4)cc3)ccc2[N+](C)(C)C)nn1 [Example 107] | > 50 µM |
| Cc1cc(NC(=O)c2ccc(C(=O)Nc3ccncc3)cc2)ccc1Nc1ccncc1 [Example 64, N^1-(3-methyl-4-(pyridin-4-ylamino)phenyl)-N^4-(pyridin-4-yl)terephthalamide] | > 50 µM |
| O=C(Nc1ccc(Nc2ccncc2)cc1)c1ccc(Cc2ccc(C(=O)Nc3ccc(Nc4ccncc4)cc3)cc2)cc1 [Example 48] | > 50 µM |
| C[N+](C)(C)c1ccc(NC(=O)c2ccc(-c3ccc(C(=O)Nc4ccc([N+](C)(C)C)c(C(F)(F)F)c4)cc3)cc2)cc1C(F)(F)F [Example 82, 4,4′-(([1,1′-biphenyl]-4,4′-dicarbonyl)bis(azanediyl))bis(N,N,N-trimethyl-2-(trifluoromethyl)benzenaminium)] | > 50 µM |
| C[N+](C)(C)c1ccc(NC(=O)c2ccc(-c3ccc(C(=O)Nc4ccc([N+](C)(C)C)c([N+](=O)[O-])c4)cc3C#N)cc2)cc1 [Example 154] | > 50 µM |
| C#CCCCOc1cc(NC(=O)c2ccc(-c3ccc(C(=O)Nc4ccc(N(C)C)c(F)c4)cc3)cc2)ccc1N(C)C [Example 123] | > 50 µM |
| C#CCCCOc1cc(NC(=O)c2ccc(-c3ccc(C(=O)Nc4ccc([N+](C)(C)C)c(F)c4)cc3)cc2)ccc1[N+](C)(C)C [Example 122] | > 50 µM |
| CN(C)c1ccc(NC(=O)c2ccc(-c3ccc(C(=O)Nc4ccc(N(C)C)c(Br)c4)cc3)cc2)cc1Br [Example 80, N^4,N^4′-bis(3-bromo-4-(dimethylamino)phenyl)-[1,1′-biphenyl]-4,4′-dicarboxamide] | > 50 µM |
| COc1cc(N(C)C)ccc1NC(=O)c1ccc(-c2ccc(C(=O)Nc3ccc(N(C)C)cc3OC)cc2)cc1 [Example 31, N^4,N^4′-bis(4-(dimethylamino)-2-methoxyphenyl)-[1,1′-biphenyl]-4,4′-dicarboxamide] | > 50 µM |
| C#CCCCCCCCCOc1cc(NC(=O)c2ccc(-c3ccc(C(=O)Nc4ccc(N(C)C)c(F)c4)cc3)cc2)ccc1N(C)C [Example 117] | > 50 µM |
| C#CCCCN(C)c1ccc(NC(=O)c2ccc(-c3ccc(C(=O)Nc4ccc(N(C)C)c(F)c4)cc3)cc2)cc1F [Example 124] | > 50 µM |
| O=C(Nc1ccc(Nc2ccncc2)cc1)c1ccc(C(=O)Nc2ccc(Nc3ccncc3)cc2)c(Cl)c1 [Example 19, 2-chloro-N^1,N^4-bis(4-(pyridin-4-ylamino)phenyl)terephthalamide] | > 50 µM |
| COC(=O)Cn1cc(CCC[N+](C)(C)c2ccc(NC(=O)c3ccc(-c4ccc(C(=O)Nc5ccc([N+](C)(C)C)c(F)c5)cc4)cc3)cc2F)nn1 [Example 106] | > 50 µM |

| Structure (SMILES) | MIC |
| --- | --- |
| C[n+]1ccccc1Nc1ccc(NC(=O)c2ccc(C(=O)Nc3ccc(Nc4cccc[n+]4C)cc3)cc2)cc1 [Example 14, 2,2′-(((terephthaloylbis(azanediyl))bis(4,1-phenylene))bis(azanediyl))bis(1-methylpyridin-1-ium)] | > 50 µM |
| C[N+](C)(C)c1ccc(NC(=O)c2ccc(-c3ccc(C(=O)Nc4ccc([N+](C)(C)C)c(OCCc5cn(CCOCCOCCOCCNC(=O)CCCC[C@@H]6SC[C@@H]7NC(=O)N[C@@H]76)nn5)c4)cc3)cc2)cc1F [Example 138] | > 50 µM |
| C[N+](C)(C)c1ccc(NC(=O)c2ccc(Cc3ccc(C(=O)Nc4ccc([N+](C)(C)C)cc4)cc3)cc2)cc1 [Example 53] | > 50 µM |
| C[N+](C)(C)c1ccc(CNC(=O)c2ccc(-c3ccc(C(=O)NCc4ccc([N+](C)(C)C)cc4)cc3)cc2)cc1 [Example 102, 4,4′-((([1,1′-biphenyl]-4,4′-dicarbonyl)bis(azanediyl))bis(methylene))bis(N,N,N-trimethylbenzenaminium)] | > 50 µM |
| CN1CCC(Nc2ccc(NC(=O)c3ccc(C(=O)Nc4ccc(NC5CCN(C)CC5)cc4)cc3)cc2)CC1 [Example 50, N^1,N^4-bis(4-((1-methylpiperidin-4-yl)amino)phenyl)terephthalamide] | > 50 µM |
| O=C(NCc1ccncc1)c1ccc(-c2ccc(C(=O)NCc3ccncc3)cc2)cc1 [Example 92, N^4,N^4′-bis(pyridin-4-ylmethyl)-[1,1′-biphenyl]-4,4′-dicarboxamide] | > 50 µM |
| O=C(Nc1ccncc1)c1ccc(-c2ccc(C(=O)Nc3ccncc3)cc2)cc1 [Example 7, N^4,N^4′-di(pyridin-4-yl)-[1,1′-biphenyl]-4,4′-dicarboxamide] | > 50 µM |
| Cc1cc(NC(=O)c2ccc(-c3ccc(C(=O)Nc4ccnc(C)c4)cc3)cc2)ccn1 [Example 27, N^4,N^4′-bis(2-methylpyridin-4-yl)-[1,1′-biphenyl]-4,4′-dicarboxamide] | > 50 µM |
| CN(C)c1ccc(NC(=O)c2ccc(-c3ccc(C(=O)Nc4ccc(N(C)C)c(Cl)c4)cc3)cc2)cc1F [Example 115] | > 50 µM |
| C[n+]1ccc(NC(=O)c2ccc(C(=O)Nc3cc[n+](C)cc3)cc2)cc1 [Example 2, 4,4′-(terephthaloylbis(azanediyl))bis(1-methylpyridin-1-ium)] | > 50 µM |
| O=C(Nc1ccc(Nc2ccncc2)cc1)c1ccc2cc(C(=O)Nc3ccc(Nc4ccncc4)cc3)ccc2c1 [Example 21, N^2,N^6-bis(4-(pyridin-4-ylamino)phenyl)naphthalene-2,6-dicarboxamide] | > 50 µM |
| O=C(Nc1ccc(Nc2ccncc2)cc1)c1ccc(C(=O)Nc2ccc(Nc3ccncc3)cc2)cc1 [Example 9, N^1,N^4-bis(4-(pyridin-4-ylamino)phenyl)terephthalamide] | > 50 µM |
| CN(C)c1ccc(NC(=O)c2ccc(-c3ccc(C(=O)Nc4ccc(N(C)C)c(C#N)c4)cc3C#N)cc2)cc1 [Example 149] | > 50 µM |
| C[N+](C)(C)c1ccc(NC(=O)c2ccc(-c3ccc(C(=O)Nc4ccc([N+]5(C)CCCCC5)cc4)cc3)cc2)cc1 [Example 144] | > 50 µM |
| COc1cc(NC(=O)c2ccc(-c3ccc(C(=O)Nc4ccc([N+]5(C)CCCCC5)cc4)cc3)cc2)ccc1[N+](C)(C)C [Example 145] | > 50 µM |
| Cc1cc(C(=O)Nc2ccc(N(C)C)cc2)ccc1-c1ccc(C(=O)Nc2ccc(N(C)C)cc2)cc1 [Example 40, N^4,N^4′-bis(4-(dimethylamino)phenyl)-2-methyl-[1,1′-biphenyl]-4,4′-dicarboxamide] | > 50 µM |
